Entries after “also recorded” stand apart in the source; their conditions may differ.

The test system of one data set is Dayo-human Glioma tumor. Kind of data set: AlamarBlue cell proliferation assay after radiosensitizer and irradiation, Dayo. Type of data set: cell-based. Conditions: 0.1 μM; FIG. 4B, P<0.01. The procedure: Human glioma cell lines: Daoy (ATCC number: HTB-186) and
(§1) Human colorectal cancer cell line: HT-29 (ATCC number: HTB-38). All cells were cultured routinely in DMEM supplemented with 10% FCS.
(§2) Three hypericin derivatives were used in the assay, including hypericin tetrasulfonic acid (HyTS); Tetrabromo hypericin (TBrHy); and Hexamethyl hypericin (HxMeHy). In addition, as control, hypericin and/or Photofrin II as well as cells exposed only to radiation, i.e. without a radiosensitizing agent.
(§3) The hypericin, hypericin derivatives and photofrin II were used in doses ranging from 0.1 μM up to 2 μM. All compounds were dissolved in DMSO, and were protected from light.
(§4) In all cases, control and tumor cells were exposed to ionizing radiation (Siemens X-ray device with 250 kV or with LINAC) at 24 h after the incubation with Hyperecin, Photofrin II or Hypericin derivatives indicated below. The total delivered radiation dose was a 10 Gy, provided in a single irradiation session on the second day of culture. The response of the tumor to the radiation treatment was evaluated by determining growth delay using the described cell proliferation assay.
(§5) Cell proliferation assay using AlamarBlue
(§6) Unless indicated otherwise, the tumor cell lines were cultured at a starting density of 1×10^5 cells/mL in DMEM and 10% FCS. […] Absorbance was measured at 570 nm and 600 nm using a micro-titer plate reader. […]

Data set [1] has as its system C6 Rat-Glioma grown in monolayer. Kind of data set: AlamarBlue cell proliferation assay after radiosensitizer and irradiation, C6 monolayer. It counts as cell-based. Conditions: 0.1 μM. The protocol:
The following cell lines were originally obtained from the American Type Culture collection (ATTC):
(§7) Rat glioma cell line: C6 (ATCC number: CCL107)
as §1, §2, §3
In all cases, control and tumor cells were exposed to ionizing radiation (Siemens X-ray device with 250 kV or with LINAC) at 24 h after the incubation with Hyperecin, Photofrin II or Hypericin derivatives indicated below. […] The response of the tumor to the radiation treatment was evaluated by determining growth delay using the described cell proliferation assay.
as §5, §6

Data set [2] deals with C6 Rat-Glioma grown as cancer stem cells spheres. Kind of data set: AlamarBlue cell proliferation assay after radiosensitizer and irradiation, C6 cancer stem cell spheres. It counts as cell-based. Conditions: 0.1 μM; irradiation 10 Gy; 5 days post irradiation; FIG. 3B, P<0.049. The procedure:
as §7
To obtain tumor stem cells, cells were cultured in stem cell conditioned media. Briefly, breast and glioma cancer cells were cultured in serum-free DMEM media containing […] bovine insulin, 100 μg/ml human transferrin, 100 μg/ml BSA, 60 ng/ml progesterone, 16 μg/ml putrescine, 40 μg/ml sodium selenite, 63 μg/ml N-acetylcysteine, 5 μM forskolin, 50 units/ml penicillin, and 50 μg/ml streptomycin, 10 ng/ml bFGF, and 10 ng/ml PDGF. In all experiments, cells were maintained in 100 mm or 96 well plate culture dishes at 37° C. in a humidified […] and were protected from light.
Three hypericin derivatives were used in the assay, including hypericin tetrasulfonic acid (HyTS); Tetrabromo hypericin (TBrHy); and Hexamethyl hypericin (HxMeHy). […]
In all cases, control and tumor cells were exposed to ionizing radiation (Siemens X-ray device with 250 kV or with LINAC) at 24 h after the incubation with Hyperecin, Photofrin II or Hypericin derivatives indicated below. […] The response of the tumor to the radiation treatment was evaluated by determining growth delay using the described cell proliferation assay. […]
as §6

The conditions of data set [3]: brain sections of treated mice, fluorescence 550-650 nm.
Data set [4] relates to U87 Tumors. Conditions: during the 2 hours prior to radiation. The protocol:
U87 Tumors were implanted subcutaneously in nude mice and then examined under a UV light lamp and the colour intensity was visualized.
(§8) These studies were aimed at assessing the localization of radiosensitizing agents and were conducted by two complementary techniques; the first in implanted U87 human glioma tumors using UV lamp and the second in extracted U87 tumors using Flow Cytometry techniques.

The test system of data set [5] is MCF-7 human breast carcinoma grown as monolayer. As to the kind of experiment: Example 2B AlamarBlue proliferation, MCF7 linear cells. Type of data set: cell-based. Conditions: 0.1-2 μM; single dose 10 Gy; FIG. 6C. The procedure: (§9) Linear cell (Lin) HT29 and MCF7 human breast carcinoma, were obtained from the American Type Culture Collection (ATCC).
Cells were cultured in Dulbecco's Modified Eagle Medium (DMEM), supplemented with 10% fetal calf serum (FCS) and antibiotics.
(§10) Three photosensitizing agents were used, Hypericin (Hy), Tetrabromo hypericin (TBrHy), and hypericin tetrasulfonic acid (HyTS) in the following concentrations: 0.1 μM, 1 μM and 2 μM. Drugs were protected from light for all time. Control cells were treated with 0.1% DMSO (vehicle).
(§11) Linear and CSC were exposed to 3 Gy irradiation daily for four consecutive days or to a single dose of 10 Gy radiation. Radiation was initiated one day after treatment with the hypericin or hypericin derivatives.
(§12) Linear and CSCs were cultured in a 96 plate in triplicates. Each cell line was treated with the three radiosensitizing agents in the indicated doses. In addition culture cells were exposure to radiation. A day before the irradiation, the radiosensitizing agents were added to the culture. Cells were allowed to grow over a period of 5 days using the method of AlamarBlue™ reduction assay. 10% Alamar Blue solution added to each well. Cells viability was measured using Eliza Reader at two different wavelengths: 570 nm and 600 nm, and the appropriate equation was calculated to reflect cell viability.

In data set [6] the test system is HT29-human colon carcinoma. As to the kind of experiment: AlamarBlue cell proliferation assay after radiosensitizer and irradiation, HT29. Type of data set: cell-based. Conditions: 0.1 μM; FIG. 4E, P<0.05. The protocol: as §1, §2, §3, §4, §5, §6
Data set [7] concerns U87 Tumors. The settings on record: wavelength of 665 nm; with or without radiation. The protocol:
U87 Tumors were resected when tumors reached end-point (1500 mm^3), minced, and digested in 4 mg/ml collagenase III, 2 mg/ml hyaluronidase, and 2 mg/ml collagenase IV in serum free DMEM, for 20 min, at 37° C. Cells were then filtered through a 40 μm sieve, and washed twice with PBS to obtain single U87 cell suspension.
The single U87 tumor cell suspensions were then acquired on Cyan ADP flow cytometer (Beckman Coulter) and analyzed with Summit (Beckman Coulter) software.
The FL8 channel, (wavelength of 655/20 nm) was used to detect differences between positive and negative cells. From each sample, at least 50,000 cells were acquired.
as §8

Data set [8] is described as follows: Treatment toxicity: body weight and overall behaviour (Example 4A). It counts as in vivo, nude mice. The settings on record: 10 mg/kg. The protocol:
(§13) Mice injected with 5% DMSO vehicle served as the control untreated group. Immediately after the injections, the mice were placed in the dark. For each group of radiosensitizing agent treated mice, half of the treated mice were then treated with a 10 Gy dose of radiation, initiated two hours after the administration of the radiosensitizing agents.
Treatment toxicity was evaluated using two parameters, (i) measuring mice's body weight and (ii) monitoring overall mice behaviour, both parameters were measured twice weekly.

In data set [9] the test system is MCF-7 human breast carcinoma grown as cancer stem cells spheres. Kind of data set: Example 2B AlamarBlue proliferation, MCF7 cancer stem cells. Type of data set: cell-based. The protocol:
as §9
Enrichment of the cancer stem cells (CSCs) population was done by incubating linear cells in a DMEM/F-12 (HAM) 1:1 medium supplement with Insulin-Transferin-Soldium Selenite, and growth factors specific for each cell line. Cells considered enriched for CSCs after 10-15 days in CSCs medium.
as §10, §11, §12

The next data set relates to U87 human glioma tumors. Kind of data set: U87 human glioma tumors implanted in nude mice, tumor growth (Example 4A). Type of data set: in vivo. Conditions: 10 mg/kg + 10 Gy radiation. The procedure:
as §13
Overall, eight groups of treatment were evaluated as follows:
Tumor growth was evaluated by measuring the tumor's volume twice weekly.

In data set [10] the test system is PANC01 human pancreatic adenocarcinoma cells. As to the kind of experiment: PANC01 human pancreatic adenocarcinoma tumors in CB.17 SCID mice, tumor volume (Example 4C). It counts as in vivo. Conditions: 10 mg/kg + 10 Gy radiation; CB.17 SCID mice; FIG. 8B. The procedure: Mice were injected with the radiosensitizing agent, and immediately after were placed in the dark. Radiation was conducted 2 hours after radiosensitizing administration. […] Tumor volume was measured prior to the treatment and thereafter twice weekly.

With `COc1cc(C)c2c3c(C)cc(OC)c4c(=O)c5c(OC)cc(OC)c6c7c(OC)cc(OC)c8c(=O)c1c2c(c87)c(c43)c56` [HxMeHy, Hexamethyl hypericin], the “radiosensitizing effect on Dayo tumor (proliferation on day 5)” value in the data set on Dayo-human Glioma tumor is listed as “effective radiosensitizing agent”. In [1] (FIG. 4A), the “radiosensitizing effect on C6 brain cancer (proliferation on day 5)” value is “effective radiosensitizing agent”. Moreover, the “proliferation of C6 glioma cells in monolayer (AlamarBlue, fold increase)” value in data set [1] (irradiation 10 Gy, 5 days post irradiation, FIG. 3A, P<0.05) is reported as “statistically inhibited the proliferation”. Also, the “proliferation of C6 glioma cells grown as CSCs (AlamarBlue, fold increase)” value in data set [2] is listed as “statistically inhibited the proliferation”.

`Cc1c(Br)c(O)c2c(=O)c3c(O)c(Br)c(O)c4c5c(O)c(Br)c(O)c6c(=O)c7c(O)c(Br)c(C)c8c1c2c(c34)c(c78)c65` [TBrHy, Tetrabromo hypericin]: in data set [3], the BBB penetration result was “penetrated the BBB”. Also, the “colour of tumors under UV light” value in the data set with U87 Tumors [4] is listed as “colored in red”. For the same compound, in data set [5], the “inhibiting proliferation of MCF7 human breast cancer cells grown as monolayer” value is listed as “effective in inhibiting the proliferation”. In addition, in data set [6], the “radiosensitizing effect on colon cancer HT29 (proliferation on day 5)” value was “effective radiosensitizing agents”. In addition, in the data set with U87 Tumors [7], the “fluorescent signal of tumor cells by flow cytometry” value is given as “fluorescent signal was detected”. Also, the tolerability of treatment entry in [8] (alone or in combination with radiation, nude mice) is reported as “well tolerated”. Further, in data set [8] (measured twice weekly), the “change in mice body weight and mice behaviour” value is “no significant change”. In [9] (0.1-2 μM, single dose 10 Gy, FIG. 6D), the “inhibiting proliferation of MCF7 human breast cancer cells grown as stem cells” value is recorded as “effective in inhibiting the proliferation”. Also, in [9] (FIGS. 6C and 6D), the “effect in MCF7 cancer stem cells compared with monolayer” value is “more pronounced”. Further, the “tumor growth of U87 tumors, agent combined with radiotherapy” value in the data set on U87 human glioma tumors (nude mice, FIG. 7) is “most effective radiosensitizing agent; also recorded: better anti-tumor activity”. In the data set on U87 human glioma tumors (one mouse, 4 days after treatment), the “tumor removal in one mouse” value was “completely removed”. The “tumor volume of PANC1 pancreatic tumors, agent with radiation” value in [10] is “most potent radiosensitizing agent; also recorded: enhanced anti-tumor activity”.

(Values after patent US20130267757A1, “ANTH[…] USE AS RADIOS[…] CANCER TREATMENT” (Sensit Science Ltd., priority 2010, published 2013).)
